Reference: patent US8133909B2 (Hoffmann-La Roche Inc., priority 2008, dated 2012)

Target: T1, human orexin-2 (hOX2) receptors (Homo sapiens, UniProt O43614)
T1 construct: expressed in transfected cells
T1 sequence (O43614 1-444): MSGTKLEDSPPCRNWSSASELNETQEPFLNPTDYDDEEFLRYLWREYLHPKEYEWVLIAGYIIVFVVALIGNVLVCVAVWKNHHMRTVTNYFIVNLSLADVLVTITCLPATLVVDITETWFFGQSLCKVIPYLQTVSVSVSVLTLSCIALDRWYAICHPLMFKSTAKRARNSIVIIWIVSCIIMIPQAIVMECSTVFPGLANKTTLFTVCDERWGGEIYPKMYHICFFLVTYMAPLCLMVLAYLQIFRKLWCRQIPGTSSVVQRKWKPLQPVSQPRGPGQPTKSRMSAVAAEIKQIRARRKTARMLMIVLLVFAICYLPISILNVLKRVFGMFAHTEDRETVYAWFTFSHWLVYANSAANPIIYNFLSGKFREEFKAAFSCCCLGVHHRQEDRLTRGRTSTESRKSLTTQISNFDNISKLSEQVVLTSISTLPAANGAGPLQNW
Assay: Intracellular Ca2+ mobilization assay (FLIPR), antagonism of orexin-A
Assay type: cell-based
Conditions: CHO(dHFr-) cells stably expressing hOX2; orexin-A at EC80 as agonist; antagonist applied 25 min before; Kb=IC50/(1+[A]/EC50); read-out: Kb (μM) OX2R (human)
Method: Intracellular Ca^2+ Mobilization Assay
The Chinese Hamster Ovary (dHFr—) mutant cell line stably expressing human orexin-1 (hOX1) or human orexin-2 (hOX2) receptors were maintained in Dulbecco's Modified Eagle Medium (1X) with GlutaMax™ 1, 4500 mg/L D-Glucose and Sodium Pyruvate (Catalog No. 31966-021, Invitrogen, Carlsbad, Calif.), 5% dialyzed fetal calf serum (Catalog No. 26400-044), 100 μg/ml penicillin and 100 μg/ml streptomycin. The cells were seeded at 5×10^4 cells/well in the poly-D-lysine treated, 96-well, black/clear-bottomed plates (Catalog No. BD356640, BD Biosciences, Palo Alto, Calif.). 24 h later, the cells were loaded for 1 h at 37° C. with 4 μM Flou-4 acetoxymethyl ester (Catalog No. F-14202, Molecular Probes, Eugene, Oreg.) in FLIPR buffer (1×HBSS, 20 mM HEPES, 2.5 mM Probenecid). Hanks' Balanced Salt Solution (HBSS) (10×) (catalog No. 14065-049) and HEPES (1M) (catalog No. 15630-056) were purchased from Invitrogen, Carlsbad, Calif. Probenecid (250 mM) (catalog No. P8761) was from Sigma, Buchs, Switzerland. The cells were washed five times with FLIPR buffer to remove excess dye and intracellular calcium mobilization, [Ca^2+]i were measured using a Fluorometric Imaging Plate Reader (FLIPR-96, Molecular Devices, Menlo Park, Calif.) as described previously (Malherbe et al., Mol. Pharmacol., 64, 823-832, 2003). Orexin A (catalog No. 1455, Toris Cookson Ltd, Bristol, UK) was used as agonist. Orexin A (50 mM stock solution in DMSO) was diluted in FLIPR buffer +0.1% BSA. The EC50 and EC80 values of orexin-A were measured daily from standard agonist concentration-response curves in CHO(dHFr—)—OX1R and —OX2R cell lines. All compounds were dissolved in 100% DMSO. Inhibition curves were determined by addition of 11 concentrations (0.0001-10 μM) of inhibitory compounds and using EC80 value of orexin-A as agonist (a concentration which gave 80% of max agonist response, determined daily). The antagonists were applied 25 min (incubation at 37° C.) before the application of the agonist. Responses were measured as peak increase in fluorescence minus basal, normalized to the maximal stimulatory effect induced by EC80 value of orexin-A or orexin- B. Inhibition curves were fitted according to the Hill equation: y=100/(1+(x/IC50)^nH), where nH=slope factor using Excel-fit 4 software (Microsoft). Kb values were calculated according to the following equation Kb=IC50/(1+[A]/EC50) where A is the concentration of agonist added which is very close to agonist EC80 value, and IC50 and EC50 values were derived from the antagonist inhibition and orexin-A or B agonist curves, respectively.

Row | Kb | Structure (SMILES)
1 | 0.068 µM | Cc1ccc(N(CCc2ccc(C(F)(F)F)nc2)C(=O)C(C)(O)c2ccccc2)cc1C (racemic) [Example 27, (R,S)—N-(3,4-Dimethyl-phenyl)-2-hydroxy-2-phenyl-N-[2-(6-trifluoromethyl-pyridin-3-yl)-ethyl]-propionamide]
2 | 0.0943 µM | Cc1ccc(CCN(C(=O)C(N)c2ccc(Cl)cc2)c2sc(C)nc2C)cc1 (racemic) [Example 32, (R,S)-2-Amino-2-(4-chloro-phenyl)-N-(2,4-dimethyl-thiazol-5-yl)-N-(2-p-tolyl-ethyl)-acetamide]
3 | 0.061 µM | COc1ccc(N(CCc2ccc(C(F)(F)F)cc2)C(=O)C(N)c2ccccc2)cn1 (racemic) [Example 36, (R,S)-2-Amino-N-(6-methoxy-pyridin-3-yl)-2-phenyl-N-[2-(4-trifluoromethyl-phenyl)-ethyl]-acetamide]
4 | 0.0439 µM | Cc1cc(N(CCc2ccc(C(F)(F)F)cc2)C(=O)C(N)c2ccc(Cl)cc2)n(C)n1 (racemic) [Example 39, (R,S)-2-Amino-2-(4-chloro-phenyl)-N-(2,5-dimethyl-2H-pyrazol-3-yl)-N-[2-(4-trifluoromethyl-phenyl)-ethyl]-acetamide]
5 | 0.0785 µM | Cc1cc(N(CCc2ccc(C(F)(F)F)cc2)C(=O)C(O)c2ccccc2)n(C)n1 (racemic) [Example 42, (R,S)—N-(2,5-Dimethyl-2H-pyrazol-3-yl)-2-hydroxy-2-phenyl-N-[2-(4-trifluoromethyl-phenyl)-ethyl]-acetamide]
6 | 0.0078 µM | Cn1ccc2ccc(N(CCc3ccc(C(F)(F)F)cn3)C(=O)C(O)c3ccc(F)cc3)cc21 (racemic) [Example 54, (R,S)-2-(4-Fluoro-phenyl)-2-hydroxy-N-(1-methyl-1H-indol-6-yl)-N-[2-(5-trifluoromethyl-pyridin-2-yl)-ethyl]-acetamide]
7 | 0.0313 µM | O=C([C@H](O)c1ccc(F)cc1)N(CCc1ccc(C(F)(F)F)cn1)c1ccc2c(c1)CCC2 (racemic) [Example 73, (R,S)-2-(4-Fluoro-phenyl)-2-hydroxy-N-indan-5-yl-N-[2-(5-trifluoromethyl-pyridin-2-yl)-ethyl]-acetamide]
8 | 0.013 µM | O=C(C(O)c1ccc(F)cc1)N(CCc1ccc(C(F)(F)F)cn1)c1ccc2c(c1)CCO2 (racemic) [Example 75, (R,S)—N-(2,3-Dihydro-benzofuran-5-yl)-2-(4-fluoro-phenyl)-2-hydroxy-N-[2-(5-trifluoromethyl-pyridin-2-yl)-ethyl]-acetamide]
9 | 0.026 µM | COc1cccc(N(CCc2ccc(C(F)(F)F)cn2)C(=O)C(O)c2ccc(F)cc2)c1 (racemic) [Example 76, (R,S)-2-(4-Fluoro-phenyl)-2-hydroxy-N-(3-methoxy-phenyl)-N-[2-(5-trifluoromethyl-pyridin-2-yl)-ethyl]-acetamide]
10 | 0.0075 µM | Cc1cc(N(CCc2ccc(C(F)(F)F)cn2)C(=O)C(O)c2ccc(F)cc2)ccc1F (racemic) [Example 77, (R,S)—N-(4-Fluoro-3-methyl-phenyl)-2-(4-fluoro-phenyl)-2-hydroxy-N-[2-(5-trifluoromethyl-pyridin-2-yl)-ethyl]-acetamide]
11 | 0.0481 µM | Cc1ccc(N(CCc2ccc(C(F)(F)F)cn2)C(=O)C(O)c2ccc(F)cc2)cc1F (racemic) [Example 78, (R,S)—N-(3-Fluoro-4-methyl-phenyl)-2-(4-fluoro-phenyl)-2-hydroxy-N-[2-(5-trifluoromethyl-pyridin-2-yl)-ethyl]-acetamide]
12 | 0.0236 µM | COc1cc(N(CCc2ccc(C(F)(F)F)cn2)C(=O)C(O)c2ccc(F)cc2)ccc1Cl (racemic) [Example 79, (R,S)—N-(4-Chloro-3-methoxy-phenyl)-2-(4-fluoro-phenyl)-2-hydroxy-N-[2-(5-trifluoromethyl-pyridin-2-yl)-ethyl]-acetamide]
13 | 0.0106 µM | COc1cc(N(CCc2ccc(C(F)(F)F)cn2)C(=O)C(O)c2ccc(F)cc2)ccc1F (racemic) [Example 88, (R,S)—N-(4-Fluoro-3-methoxy-phenyl)-2-(4-fluoro-phenyl)-2-hydroxy-N-[2-(5-trifluoromethyl-pyridin-2-yl)-ethyl]-acetamide]
14 | 0.0438 µM | O=C(C(O)c1ccc(F)cc1)N(CCc1ccc(C(F)(F)F)cn1)c1ccc(F)c(CO)c1 (racemic) [Example 90, (R,S)—N-(4-Fluoro-3-hydroxymethyl-phenyl)-2-(4-fluoro-phenyl)-2-hydroxy-N-[2-(5-trifluoromethyl-pyridin-2-yl)-ethyl]-acetamide]
15 | 0.0146 µM | COc1ccc(N(CCc2ccc(C(F)(F)F)cn2)C(=O)C(O)c2ccc(F)cc2)cc1C (racemic) [Example 93, (R,S)-2-(4-Fluoro-phenyl)-2-hydroxy-N-(4-methoxy-3-methyl-phenyl)-N-[2-(5-trifluoromethyl-pyridin-2-yl)-ethyl]-acetamide]
16 | 0.0195 µM | Cc1ccc(N(CCc2ccc(C(F)(F)F)cn2)C(=O)C(O)c2ccc(F)cc2)cc1OC(F)F (racemic) [Example 95, (R,S)-N-(3-Difluoromethoxy-4-methyl-phenyl)-2-(4-fluoro-phenyl)-2-hydroxy-N-[2-(5-trifluoromethyl-pyridin-2-yl)-ethyl]-acetamide]
17 | 0.0216 µM | O=C(C(O)c1ccc(F)cc1)N(CCc1ccc(C(F)(F)F)cn1)c1ccc(OC(F)F)c(OC(F)F)c1 (racemic) [Example 96, (R,S)—N-(3,4-Bis-difluoromethoxy-phenyl)-2-(4-fluoro-phenyl)-2-hydroxy-N-[2-(5-trifluoromethyl-pyridin-2-yl)-ethyl]-acetamide]
18 | 0.0276 µM | CCc1cc(N(CCc2ccc(C(F)(F)F)cn2)C(=O)C(O)c2ccc(F)cc2)ccc1Cl (racemic) [Example 97, (R,S)-N-(4-Chloro-3-ethyl-phenyl)-2-(4-fluoro-phenyl)-2-hydroxy-N-[2-(5-trifluoromethyl-pyridin-2-yl)-ethyl]-acetamide]
19 | 0.0216 µM | O=C(C(O)c1ccc(F)cc1)N(CCc1ccc(C(F)(F)F)cn1)c1ccc(Cl)c(CO)c1 (racemic) [Example 98, (R,S)—N-(4-Chloro-3-hydroxymethyl-phenyl)-2-(4-fluoro-phenyl)-2-hydroxy-N-[2-(5-trifluoromethyl-pyridin-2-yl)-ethyl]-acetamide]
20 | 0.0285 µM | COC(=O)c1cc(N(CCc2ccc(C(F)(F)F)cn2)C(=O)C(O)c2ccc(F)cc2)ccc1Cl (racemic) [Example 99, (R,S)-2-Chloro-5-{[2-(4-fluoro-phenyl)-2-hydroxy-acetyl]-[2-(5-trifluoromethyl-pyridin-2-yl)-ethyl]-amino}-benzoic acid methyl ester]
21 | 0.0239 µM | O=C(C(O)c1ccc(F)cc1)N(CCc1ccc(C(F)(F)F)cn1)c1ccc(Cl)c(OC2CC2)c1 (racemic) [Example 103, (R,S)—N-(4-Chloro-3-cyclopropoxy-phenyl)-2-(4-fluoro-phenyl)-2-hydroxy-N-[2-(5-trifluoromethyl-pyridin-2-yl)-ethyl]-acetamide]
22 | 0.0116 µM | O=C([C@@H](O)c1ccc(F)cc1)N(CCc1ccc(C(F)(F)F)nc1)c1ccc2c(c1)C(O)CCO2 (single isomer, unassigned) [Example 101, (S)-2-(4-Fluoro-phenyl)-2-hydroxy-N—((R or S)-4-hydroxy-chroman-6-yl)-N-[2-(6-trifluoromethyl-pyridin-3-yl)-ethyl]-acetamide]
23 | 0.0116 µM | O=C([C@@H](O)c1ccc(F)cc1)N(CCc1ccc(C(F)(F)F)nc1)c1ccc2c(c1)C(O)CCO2 (single isomer, unassigned) [Example 102, (S)-2-(4-Fluoro-phenyl)-2-hydroxy-N-((S or R)-4-hydroxy-chroman-6-yl)-N-[2-(6-trifluoromethyl-pyridin-3-yl)-ethyl]-acetamide]
